# US20230002344A1, “NOVEL BENZOTHIOPHENE DERIVATIVES AND USE THEREOF FOR STIMULATING MITOCHONDRIAL TURNOVER” (NIBN, The National Institute For Biotechnology In The Negev …, priority 2019, published 2023)
# Experiments:
# Format in all cases: cell-based
# [1] = tested on: INS1 cells expressing MitoTimer; test: MitoTimer red/green ratio high-content screen and dose-response; settings: 18 h, Rapamycin 100 nM; for MitoTimer red/green ratio (known modulators): Urolithin 50 uM, Bafilomycin 200 nM, Chloroquine 20 uM
# Protocol: INS1 cells were stably transduced with MitoTimer by lentiviral infection and were tested using known modulators of autophagy. The paradigm used was based on previous reports showing that the shift in emission from green to red occurs within 18 hours. Assuming that this shift is constant, changes in red FI occurring during this frame of time can result from an effect on MitoTimer clearance and not from an effect on synthesis. The paradigm employed consisted therefore of a treatment lasting 18 hours followed by imaging.
# Stimulators of mitochondrial clearance were defined as those inducing a red-to-green FI below −3 and a red intensity below −5.1. Suppressors of mitochondrial clearance were defined as those inducing a red-to-green FI above 10.34 and a red intensity above 4.5. […] Compounds displaying high green FI (above 15) were also discarded to prevent the inclusion of autofluorescent molecules. Only molecules that filled the above criteria in both duplicates were further tested.
# The screen was performed during 8 sessions in Weizmann institute. All compounds were tested at a concentration of 10 μM, in duplicates. The images were processed to reduce background (using Metamorph software) and then analyzed in GeneData software.
# We subjected those compounds to a dose-response assay (concentrations: 10, 3.33, 1.11, 0.37 and 0.12 μM).
# MitoTimer expressing INS1 cells generation, Cell Culture and treatments. MitoTimer-reporter was cloned into the pHAGE2 lenti-vector under the full-length EF1-alpha promoter to obtain constitutive expression. For the HCS, INS1 cells were infected with lentivirus carrying mitochondrial complex-I-targeted-MitoTimer plasmid. Highly expressing cells were selected by high speed fluorescence activated cell sorter (SY3200 cell sorter, Synergy, iCyt) and kept by the addition of puromycin (1 mg . L-1) in the cell media. Cells were thawed before each experiment, and MitoTimer expression checked through fluorescence.
# High-Content Screening. […] HCS assay was developed at the Drug Discovery Unit, INCPM, Weizmann Institute of Science. […] Briefly, cells were treated with 10 uM of each compounds for 18 h and imaged in two wavelengths (FITC—excitation […], emission 520/35 nm and TRITC—excitation 543/22 nm, emission 593/40 nm) at ImageXpress Micro High-Content Imaging System/Molecular Devices. Rapamycin 100 nM was used as a control. In each cell plate, the neutral (DMSO) and positive control (Rapamycin) were repeated in 16 replicates while the treatments were performed in duplicates. Each plate was replicated and only hits found in the 2 independent plates were considered. Two fields of each well were analyzed, what normally allowed the analysis of 20-40 cells per condition. MitoTimer red/green ratio for every cell was done in MetaXpress. […] The compounds which affected MitoTimer red/green ratio in a dose response, ranging from […], were classified as a hit.
# Individual cells were identified using the red channel, and red and green MitoTimer fluorescence were analyzed and ratio determined per cell.
# INS1 cells [2] = test: Mitochondrial mass by Mitotracker green staining; settings: 18 h; SPB08007 25 μM, MWP00839 11.5 μM, Urolithin A 25 μM
# Protocol: The Z-score depicts the standard deviation from the neutral control (DMSO). In FIG. 3C: Mitochondrial mass in INS1 cells treated for 18 hours with either DMSO (control), Urolithin A (25 μM), SPB08007 (“SBP”) (25 μM) or MWP00839 (“MWP”) (11.5 μM) and then stained with Mitotracker green (200 nM). In FIG. 3D: SPB08007 and MWP00839 increase the number of mitochondria inside autolysosomes. INS1 cells expressing mCherry-GFP were exposed to SPB08007, MWP00839, and DMSO for 8 hours and then subjected to confocal microscopy. The area of red fluorescence in the taken images was determined. N=3+/−SEM pANOVA<0.05. FIG. 3E provides representative images. […] FIG. 3F provides the Western blot against LC3 in INS1 cells treated with the compounds in presence or absence of bafilomycin (+b) for the last 2 hours.
# Mitotracker Green Fluorescence, Anion Radical Superoxide and Mitochondrial Membrane Potential. INS1 cells were seeded into wells of a 96-wells glass bottom cell culture plate (CELLSTAR) at a density of 2*10^4 cells/well. To assess mitochondrial clearance, a pulse-chase experiment was performed. […] Results are expressed as the percentage of MTG fluorescence relative to MTG fluorescence of the “time 0” control. […] Integrated fluorescence of each field was analyzed in Image J after background subtraction and threshold (IsoData) application. Twenty-four fields of each condition were analyzed in each experiment.
# INS1 cells [3] = test: Cell growth rate under doxycycline; settings: 1 mg/ml, 24, 48 and 72 hours
# Protocol: (§1) INS1 (an insulin secreting cell line) cells (FIGS. 1A and 1B) and primary beta-cells (FIG. 1C) were treated with 1 mg/ml doxycycline for 72 hours. […] FIGS. 1B and 1C show basal Oxygen Consumption Rate (OCR) measured with Seahorse XF 24 respirometer. Average of 4 wells +/−SEM.
# primary beta-cells = test: Basal oxygen consumption rate in primary beta-cells; settings: 1 mg/ml, 72 hours
# Protocol: as §1
structure (smiles),measurement,setting,value
"O=c1oc2cc(O)ccc2c2ccc(O)cc12 [Urolithin A, reference compound]",MitoTimer red/green ratio (known modulators),[1],significantly reduced
same,mitochondrial mass (mitotracker green fluorescence),INS1 cells [2],reduction
"CO/C1=C\C(C)=C\[C@@H](C)[C@@H](O)[C@@H](C)C/C(C)=C/C=C/[C@H](OC)[C@@H]([C@@H](C)[C@@H](O)[C@H](C)[C@@]2(O)C[C@@H](O)[C@H](C)[C@@H](C(C)C)O2)OC1=O [bafilomycin A1, reference compound]",MitoTimer red/green ratio (known modulators),[1],increased
"CO[C@H]1C[C@@H]2CC[C@@H](C)[C@@](O)(O2)C(=O)C(=O)N2CCCC[C@H]2C(=O)O[C@H]([C@H](C)C[C@@H]2CC[C@@H](O)[C@H](OC)C2)CC(=O)[C@H](C)/C=C(\C)[C@@H](O)[C@@H](OC)C(=O)[C@H](C)C[C@H](C)/C=C/C=C/C=C/1C [Rapamycin, reference compound]",increase of MitoTimer red/green ratio,[1],50%
C[C@H]1c2cccc(O)c2C(=O)C2=C(O)[C@]3(O)C(=O)C(C(N)=O)=C(O)[C@@H](N(C)C)[C@@H]3[C@@H](O)[C@@H]21 [Doxycycline],cell growth,INS1 cells [3],impairs
same,basal oxygen consumption rate (OCR),primary beta-cells,impairs
